Calls of active or inactive are those of the source. The rule behind the calls is not given here.
How the values were obtained:
Rattus norvegicus [1] = assay: Anticonvulsant activity in ip dosed Sprague-Dawley rat assessed as protection against maximal electroshock-induced seizures; assay type: functional
Rattus norvegicus [2] = assay: Anticonvulsant activity in ip dosed Sprague-Dawley rat assessed as protection against subcutaneous metrazol-induced seizures; assay type: functional
[3] = Neurotoxicity in ip dosed Sprague-Dawley rat; assay type: toxicity, organism-based; conditions: in vivo
[4] = Protective index, ratio of TD50 for neurotoxicity in ip dosed Sprague-Dawley rat to ED50 for anticonvulsant activity in ip dosed MES Sprague-Dawley rat model; assay type: toxicity, organism-based; conditions: in vivo, read-out: Ratio TD50/ED50
Rattus norvegicus [5] = assay: Anticonvulsant activity in ip dosed Sprague-Dawley rat assessed as protection against maximal electroshock-induced seizures measured as time to peak effect; assay type: functional
Mus musculus [6] = assay: Anticonvulsant activity in albino CF1 mouse assessed as protection against maximal electroshock-induced seizures at 100 mg/kg, ip measured after 0.5 hr; assay type: functional, organism-based; parameters: dose 100 mg/kg
Mus musculus [7] = assay: Anticonvulsant activity in albino CF1 mouse assessed as protection against maximal electroshock-induced seizures at 100 mg/kg, ip measured after 4 hrs; assay type: functional, organism-based; parameters: dose 100 mg/kg
Mus musculus [8] = assay: Neurotoxicity in albino CF1 mouse at 100 mg/kg, ip measured after 0.5 hr; assay type: toxicity, organism-based; parameters: dose 100 mg/kg, route intraperitoneal; conditions: in vivo
Mus musculus [9] = assay: Neurotoxicity in albino CF1 mouse at 100 mg/kg, ip measured after 4 hrs; assay type: toxicity, organism-based; parameters: dose 100 mg/kg, route intraperitoneal; conditions: in vivo
Mus musculus [10] = assay: Anticonvulsant activity in albino CF1 mouse assessed as protection against 32 mA current-induced seizures at 100 mg/kg, ip measured after 0.5 hr; assay type: functional, organism-based; parameters: dose 100 mg/kg
Mus musculus [11] = assay: Anticonvulsant activity in albino CF1 mouse assessed as protection against 32 mA current-induced seizures at 100 mg/kg, ip measured after 2 hrs; assay type: functional, organism-based; parameters: dose 100 mg/kg
Mus musculus [12] = assay: Neurotoxicity in 32 mA current-induced seizure albino CF1 mouse model at 100 mg/kg, ip measured after 0.5 hr; assay type: toxicity, organism-based; parameters: dose 100 mg/kg, route intraperitoneal; conditions: in vivo
Mus musculus [13] = assay: Neurotoxicity in 32 mA current-induced seizure albino CF1 mouse model at 100 mg/kg, ip measured after 2 hrs; assay type: toxicity, organism-based; parameters: dose 100 mg/kg, route intraperitoneal; conditions: in vivo
Rattus norvegicus [14] = assay: Anticonvulsant activity in Sprague-Dawley rat assessed as protection against maximal electroshock-induced seizures at 30 mg/kg, po measured after 0.25 hr; assay type: functional, organism-based; parameters: dose 30 mg/kg
Rattus norvegicus [15] = assay: Anticonvulsant activity in Sprague-Dawley rat assessed as protection against maximal electroshock-induced seizures at 30 mg/kg, po measured after 0.5 hr; assay type: functional, organism-based; parameters: dose 30 mg/kg
Rattus norvegicus [16] = assay: Anticonvulsant activity in Sprague-Dawley rat assessed as protection against maximal electroshock-induced seizures at 30 mg/kg, po measured after 1 hr; assay type: functional, organism-based; parameters: dose 30 mg/kg
Rattus norvegicus [17] = assay: Anticonvulsant activity in Sprague-Dawley rat assessed as protection against maximal electroshock-induced seizures at 30 mg/kg, po measured after 2 hrs; assay type: functional, organism-based; parameters: dose 30 mg/kg
Rattus norvegicus [18] = assay: Anticonvulsant activity in Sprague-Dawley rat assessed as protection against maximal electroshock-induced seizures at 30 mg/kg, po measured after 4 hrs; assay type: functional, organism-based; parameters: dose 30 mg/kg
Rattus norvegicus [19] = assay: Neurotoxicity in MES Sprague-Dawley rat model at 30 mg/kg, po measured after 0.25 hr; assay type: toxicity, organism-based; parameters: dose 30 mg/kg, route oral; conditions: in vivo
Rattus norvegicus [20] = assay: Neurotoxicity in MES Sprague-Dawley rat model at 30 mg/kg, po measured after 0.5 hr; assay type: toxicity, organism-based; parameters: dose 30 mg/kg, route oral; conditions: in vivo
Rattus norvegicus [21] = assay: Neurotoxicity in MES Sprague-Dawley rat model at 30 mg/kg, po measured after 1 hr; assay type: toxicity, organism-based; parameters: dose 30 mg/kg, route oral; conditions: in vivo
Rattus norvegicus [22] = assay: Neurotoxicity in MES Sprague-Dawley rat model at 30 mg/kg, po measured after 2 hrs; assay type: toxicity, organism-based; parameters: dose 30 mg/kg, route oral; conditions: in vivo
Rattus norvegicus [23] = assay: Neurotoxicity in MES Sprague-Dawley rat model at 30 mg/kg, po measured after 4 hrs; assay type: toxicity, organism-based; parameters: dose 30 mg/kg, route oral; conditions: in vivo
Rattus norvegicus [24] = assay: Anticonvulsant activity in Sprague-Dawley rat assessed as protection against maximal electroshock-induced seizures at 30 mg/kg, ip measured after 0.25 hr; assay type: functional, organism-based; parameters: dose 30 mg/kg
Rattus norvegicus [25] = assay: Anticonvulsant activity in Sprague-Dawley rat assessed as protection against maximal electroshock-induced seizures at 30 mg/kg, ip measured after 0.5 hr; assay type: functional, organism-based; parameters: dose 30 mg/kg
Rattus norvegicus [26] = assay: Anticonvulsant activity in Sprague-Dawley rat assessed as protection against maximal electroshock-induced seizures at 30 mg/kg, ip measured after 1 hr; assay type: functional, organism-based; parameters: dose 30 mg/kg
Rattus norvegicus [27] = assay: Anticonvulsant activity in Sprague-Dawley rat assessed as protection against maximal electroshock-induced seizures at 30 mg/kg, ip measured after 2 hrs; assay type: functional, organism-based; parameters: dose 30 mg/kg
Rattus norvegicus [28] = assay: Anticonvulsant activity in Sprague-Dawley rat assessed as protection against maximal electroshock-induced seizures at 30 mg/kg, ip measured after 4 hrs; assay type: functional, organism-based; parameters: dose 30 mg/kg
Rattus norvegicus [29] = assay: Neurotoxicity in MES Sprague-Dawley rat model at 30 mg/kg, ip measured after 0.25 hr; assay type: toxicity, organism-based; parameters: dose 30 mg/kg, route intraperitoneal; conditions: in vivo
Rattus norvegicus [30] = assay: Neurotoxicity in MES Sprague-Dawley rat model at 30 mg/kg, ip measured after 0.5 hr; assay type: toxicity, organism-based; parameters: dose 30 mg/kg, route intraperitoneal; conditions: in vivo
Rattus norvegicus [31] = assay: Neurotoxicity in MES Sprague-Dawley rat model at 30 mg/kg, ip measured after 1 hr; assay type: toxicity, organism-based; parameters: dose 30 mg/kg, route intraperitoneal; conditions: in vivo
Rattus norvegicus [32] = assay: Neurotoxicity in MES Sprague-Dawley rat model at 30 mg/kg, ip measured after 2 hrs; assay type: toxicity, organism-based; parameters: dose 30 mg/kg, route intraperitoneal; conditions: in vivo
Rattus norvegicus [33] = assay: Neurotoxicity in MES Sprague-Dawley rat model at 30 mg/kg, ip measured after 4 hrs; assay type: toxicity, organism-based; parameters: dose 30 mg/kg, route intraperitoneal; conditions: in vivo
Mus musculus [34] = assay: Anticonvulsant activity in albino CF1 mouse assessed as protection against maximal electroshock-induced seizures at 100 mg/kg, ip measured after 0.25 hr; assay type: functional, organism-based; parameters: dose 100 mg/kg
Mus musculus [35] = assay: Anticonvulsant activity in albino CF1 mouse assessed as protection against maximal electroshock-induced seizures at 100 mg/kg, ip measured after 1 hr; assay type: functional, organism-based; parameters: dose 100 mg/kg
Mus musculus [36] = assay: Anticonvulsant activity in albino CF1 mouse assessed as protection against subcutaneous metrazol-induced seizures at 100 mg/kg, ip measured after 0.25 hr; assay type: functional, organism-based; parameters: dose 100 mg/kg
Mus musculus [37] = assay: Anticonvulsant activity in albino CF1 mouse assessed as protection against subcutaneous metrazol-induced seizures at 100 mg/kg, ip measured after 0.5 hr; assay type: functional, organism-based; parameters: dose 100 mg/kg
Mus musculus [38] = assay: Anticonvulsant activity in albino CF1 mouse assessed as protection against subcutaneous metrazol-induced seizures at 100 mg/kg, ip measured after 1 hr; assay type: functional, organism-based; parameters: dose 100 mg/kg
Mus musculus [39] = assay: Anticonvulsant activity in albino CF1 mouse assessed as protection against subcutaneous metrazol-induced seizures at 100 mg/kg, ip measured after 4 hrs; assay type: functional, organism-based; parameters: dose 100 mg/kg
Mus musculus [40] = assay: Neurotoxicity in albino CF1 mouse at 100 mg/kg, ip measured after 0.25 hr; assay type: toxicity, organism-based; parameters: dose 100 mg/kg, route intraperitoneal; conditions: in vivo
Mus musculus [41] = assay: Neurotoxicity in albino CF1 mouse at 100 mg/kg, ip measured after 1 hr; assay type: toxicity, organism-based; parameters: dose 100 mg/kg, route intraperitoneal; conditions: in vivo
Mus musculus [42] = assay: Anticonvulsant activity in albino CF1 mouse assessed as protection against 32 mA current-induced seizures at 100 mg/kg, ip measured after 0.25 hr; assay type: functional, organism-based; parameters: dose 100 mg/kg
Mus musculus [43] = assay: Anticonvulsant activity in albino CF1 mouse assessed as protection against 32 mA current-induced seizures at 100 mg/kg, ip measured after 1 hr; assay type: functional, organism-based; parameters: dose 100 mg/kg
Mus musculus [44] = assay: Anticonvulsant activity in albino CF1 mouse assessed as protection against 32 mA current-induced seizures at 100 mg/kg, ip measured after 4 hrs; assay type: functional, organism-based; parameters: dose 100 mg/kg
Mus musculus [45] = assay: Neurotoxicity in 32 mA current-induced seizure albino CF1 mouse model at 100 mg/kg, ip measured after 0.25 hr; assay type: toxicity, organism-based; parameters: dose 100 mg/kg, route intraperitoneal; conditions: in vivo
Mus musculus [46] = assay: Neurotoxicity in 32 mA current-induced seizure albino CF1 mouse model at 100 mg/kg, ip measured after 1 hr; assay type: toxicity, organism-based; parameters: dose 100 mg/kg, route intraperitoneal; conditions: in vivo
Mus musculus [47] = assay: Neurotoxicity in 32 mA current-induced seizure albino CF1 mouse model at 100 mg/kg, ip measured after 4 hrs; assay type: toxicity, organism-based; parameters: dose 100 mg/kg, route intraperitoneal; conditions: in vivo

O=C1NC(=O)C(c2ccccc2)(c2ccccc2)N1 [PHENYTOIN]
ED50 (Rattus norvegicus [1]): 10 µmol/kg | ED50 (Rattus norvegicus [2]): > 430 µmol/kg | TD50 [3]: 66 µmol/kg | selectivity ratio [4]: 6.4 | Time (Rattus norvegicus [5]): 0.25 h

Cl.O=C1NC(=O)[C@@H]2C[C@@H](O)CN2C1c1cccc(C(F)(F)F)c1 (mixture of isomers)
Activity (Mus musculus [6]): Active | Activity (Mus musculus [7]): inactive | Activity (Mus musculus [8]): Toxic | Activity (Mus musculus [9]): Non-toxic | Activity (Mus musculus [10]): Active | Activity (Mus musculus [11]): inactive | Activity (Mus musculus [12]): Toxic | Activity (Mus musculus [13]): Non-toxic | Activity (Rattus norvegicus [14]): inactive | Activity (Rattus norvegicus [15]): inactive | Activity (Rattus norvegicus [16]): inactive | Activity (Rattus norvegicus [17]): inactive | Activity (Rattus norvegicus [18]): inactive | Activity (Rattus norvegicus [19]): Non-toxic | Activity (Rattus norvegicus [20]): Non-toxic | Activity (Rattus norvegicus [21]): Non-toxic | Activity (Rattus norvegicus [22]): Non-toxic | Activity (Rattus norvegicus [23]): Non-toxic | Activity (Rattus norvegicus [24]): inactive | Activity (Rattus norvegicus [25]): inactive | Activity (Rattus norvegicus [26]): inactive | Activity (Rattus norvegicus [27]): inactive | Activity (Rattus norvegicus [28]): inactive | Activity (Rattus norvegicus [29]): Non-toxic | Activity (Rattus norvegicus [30]): Non-toxic | Activity (Rattus norvegicus [31]): Non-toxic | Activity (Rattus norvegicus [32]): Non-toxic | Activity (Rattus norvegicus [33]): Non-toxic

O=C1NC(=O)[C@@H](c2cccc(C(F)(F)F)c2)N2CCCC[C@H]12
Activity (Mus musculus [34]): inactive | Activity (Mus musculus [6]): inactive | Activity (Mus musculus [35]): Active | Activity (Mus musculus [7]): inactive | Activity (Mus musculus [36]): inactive | Activity (Mus musculus [37]): inactive | Activity (Mus musculus [38]): inactive | Activity (Mus musculus [39]): inactive | Activity (Mus musculus [40]): Non-toxic | Activity (Mus musculus [8]): Non-toxic | Activity (Mus musculus [41]): Non-toxic | Activity (Mus musculus [9]): Non-toxic | Activity (Mus musculus [42]): Active | Activity (Mus musculus [10]): Active | Activity (Mus musculus [43]): Active | Activity (Mus musculus [11]): inactive | Activity (Mus musculus [44]): inactive | Activity (Mus musculus [45]): Non-toxic | Activity (Mus musculus [12]): Non-toxic | Activity (Mus musculus [46]): Non-toxic | Activity (Mus musculus [13]): Non-toxic | Activity (Mus musculus [47]): Non-toxic | Activity (Rattus norvegicus [14]): inactive | Activity (Rattus norvegicus [15]): inactive | Activity (Rattus norvegicus [16]): inactive | Activity (Rattus norvegicus [17]): inactive | Activity (Rattus norvegicus [18]): inactive | Activity (Rattus norvegicus [19]): Non-toxic | Activity (Rattus norvegicus [20]): Non-toxic | Activity (Rattus norvegicus [21]): Non-toxic | Activity (Rattus norvegicus [22]): Non-toxic | Activity (Rattus norvegicus [23]): Non-toxic | Activity (Rattus norvegicus [24]): inactive | Activity (Rattus norvegicus [25]): inactive | Activity (Rattus norvegicus [26]): inactive | Activity (Rattus norvegicus [27]): inactive | Activity (Rattus norvegicus [28]): inactive | Activity (Rattus norvegicus [29]): Non-toxic | Activity (Rattus norvegicus [30]): Non-toxic | Activity (Rattus norvegicus [31]): Non-toxic | Activity (Rattus norvegicus [32]): Non-toxic | Activity (Rattus norvegicus [33]): Non-toxic

From ChEMBL document CHEMBL3352057, “Novel fluorinated pyrrolo[1,2-a]pyrazine-2,6-dione derivatives: synthesis and anticonvulsant evaluation in animal models of epilepsy” (Bioorg Med Chem, 2014)
